Data as given in patent US10118943B2, “Compounds and methods for inhibiting cell death” (Ramot at Tel-Aviv University Ltd., priority 2012, dated 2018).
“Also recorded” adds a separate entry of the source. Like-named read-outs stand apart in the source and are kept apart here. Ends that are not written are not given here.

How the values were obtained:
ADNP+/− mice [1] = experiment: Object recognition test in ADNP-deficient mice; type: in vivo, mouse; details: intranasal, twice a day, 1 month, ADNP+/− male mice
Description: (§1) All procedures involving animals were approved by the Animal Care and Use Committee of Tel Aviv University and the National Institutes of Health (Bethesda, Md.). ADNP heterozygous mice, a model for cognitive impairments (Vulih-Shultzman et al., 2007, J. Pharmacol. Exp. Ther. 323:438-449), were housed in a 12-h light/12-h dark cycle facility, and free access to rodent chow and water was available.
(§2) SKIP (SEQ ID NO:6) treatment included daily intranasal administrations over a 1 month period to 5-month-old male mice (2 μg/5 μl/mouse/day). For intranasal administration, the peptide was dissolved in a vehicle solution, in which each milliliter included 7.5 mg of NaCl, 1.7 mg of citric acid monohydrate, 3 mg of disodium phosphate dihydrate, and 0.2 mg of benzalkonium chloride solution (50%). SKIP (SEQ ID NO:6) or vehicle solution (DD) was administered to mice hand-held in a semisupine position with nostrils facing the investigator. A pipette tip was used to administer 5 μl/each nostril. The mouse was handheld until the solution was totally absorbed (˜10 s). Nasal SKIP (SEQ ID NO:6) application was performed daily, twice a day, for 1 month (5 days a week). After 1 month, SKIP (SEQ ID NO:6) was applied 2 h before the behavioral tests (described below).
The test includes 2 consecutive days of habituation (five minutes per day) and the experimental day which consists of the three phases. The test was conducted two hours after the daily intranasal SKIP (SEQ ID NO:6). During the first phase (Phase 1, habituation phase), the open field apparatus (arena of 50×50 cm) contained two identical objects (samples) and a mouse was placed in the apparatus facing the wall and allowed to freely explore the objects. At the end of the 5-min session of Phase 1, the mouse was put back into its home cage for 3 hours. […] The time spent sniffing/touching each object was measured. The data was analyzed using the following formula: D1=b−a, when ‘a’ designated the time of exploration of the familiar object and ‘b’ designated the time of exploration of the novel object. […]

PC12 cells = details: ZnCl2 400 μM, 4 h
Description: FIG. 15: Rat pheochromocytoma cells (PC12) were seeded on Poly-D-Lysine coated 96-well tissue culture dishes in high concentration (30,000 cells/well). On the day of the experiment the cells were treated with ZnCl2 (400 μM) either alone or in combination with different concentration of SKIP for 4 h. After 4 h the cell viability was analyzed by MTS assay. […] All values are from one experiment performed in hexplicate.
Rat pheochromocytoma cell (PC12, ATCC, Bethesda, Md., USA) were grown in 10-cm tissue culture dishes (Corning). The base medium for this cell line was RPMI-1640 Medium (Invitrogen) supplemented with 10% heat-inactivated horse serum, 5% fetal bovine serum and solution containing 100 U/ml penicillin together with […] streptomycin (Biological Industries, Beit Haemek, Israel). The cells were incubated in 95% air; 5% CO2 in a humidified incubator at 37° C. The medium was changed every 2 to 3 days. The cells were subcultured when cell density reached 4×10^6 cells/ml. The cells were split in a ratio of 1:4.
On the day before the experiment cells were to be harvested, re-suspended and seeded on tissue culture dishes. For cell viability measurements, cells were seeded on Poly-D-Lysine coated 96-well tissue culture dishes (Sigma-Aldrich) at a concentration of 3×10^4 cells/well.
The cell viability is measured by colorimetric method that determines the number of viable cells in culture. This method is based on the bio-reduction of the tetrazolium compound [3-(4,5-dimethylthiazol-2-yl)-5-(3-carboxymethoxyphenyl)-2-(4-sulfophenyl)-2H-tetrazolium; MTS] by living cells into a colored formazan product. This reaction is occurring in the presence of an electron coupling reagent (phenazine ethosulfate; PES). The amount of formazan product is measured by ELISA plate reader at 490 nm and is directly proportional to the number of living cells in culture (CellTiter 96® AQueous One Solution Cell Proliferation Assay; Promega, Madison, Wis., USA).

ADNP+/− mice [2] = experiment: Elevated plus-maze in ADNP-deficient mice; type: in vivo, mouse; details: intranasal treatment, ADNP+/− male mice, 5 min
Description: as §1
as §2, with “Nasal SKIP (SEQ ID NO:6) application was performed daily, twice a day, for 1 month (5 days a week). After 1 month, SKIP (SEQ ID NO:6) was applied 2 h before the behavioral tests (described below).” left out
The maze consisted of two open arms (50 cm×10 cm) and two closed arms 50 cm×10 cm×40 cm), with arms of each type opposite to each other. […] The data were analyzed using the following formula: D2=(b−a)/(b+a), when ‘a’ designated the time spent in the open arm and ‘b’ designated the time spent in the closed arm.

ADNP+/− mice [3] = experiment: Morris water maze in ADNP-deficient mice; type: in vivo, mouse; details: intranasal, twice a day, 1 month, ADNP+/− male mice
Description: as §1
SKIP (SEQ ID NO:6) treatment included daily intranasal administrations over a 1 month period to 5-month-old male mice (2 μg/5 μl/mouse/day). […]
The apparatus was a pool with a diameter of 140 cm, filled with opaque water (23-24° C.). […] The time taken for an animal to reach the platform (latency) was recorded. The daily improvement (in seconds to reach the hidden platform) for each animal (in comparison to the starting day) was calculated. […] The platform was removed from the maze and the distance traveled and the time spent by the mice in the pool's quarter where the platform used to be, were recorded (for a maximal period of 90 s). Mouse behavior in the quarter that is most distant from the target quarter was also measured. All measurements were recorded as the percentage of the total time spent or total path traveled in the pool. To determine the general mobility of the mice in the pool, the swimming behavior of each animal was monitored and the total path length and swim velocity were calculated. […]

With “SKIP (not fully specified (N-terminus, C-terminus)) [SKIP (SEQ ID NO:6), 4-amino acid peptide Ser-Lys-Ile-Pro]” the “object recognition, Phase 2 short retention (discrimination index D1)” value (ADNP+/− mice [1]) was “improved short and long term memory”, the “object recognition, Phase 3 long retention, 24 hours (discrimination index D1)” value (ADNP+/− mice [1]) was “improvement in long term memory for the ADNP-deficient mice, bringing them to the control levels; also recorded: improved short and long term memory” and the “protection against Zn intoxication (MTS viability vs Zn alone)” value (PC12 cells; peptide 10^−9M) was “showed protection”. For the same substance, the “protection against Zn intoxication (MTS viability vs Zn alone)” value (PC12 cells; peptide 10^−15M) was “showed protection”, the “risky behavior, time spent in open vs closed arms” value (ADNP+/− mice [2]) was “reduction in the risky behavior; also recorded: improvement in the risky behavior” and the “water maze first daily test (reference memory), latency to hidden platform” value (ADNP+/− mice [3]) was “improved learning on the 2nd day; also recorded: improved the memory”. For the same substance, the “water maze second daily test, 5th day, latency to hidden platform” value (ADNP+/− mice [3]) was “improvement in the behavior of the ADNP-deficient mice, bringing them to the control levels”.
